Assay results from patent US20260374769A1, “Crystalline Forms Of An Imidazopyridine Derivative” (Arisan Therapeutics Inc., priority 2023, published 2026).
Values after ≈ are worked out from the molar mass of the structure shown.

Assays:
obese C57BL/6J DIO mice = assay: Mouse DIO Obesity Study (four weeks, oral once a day); type: in vivo; settings: 4 weeks
Procedure: To determine if Compound 1 might have anti-obesity activity through CB1R antagonism a four week in vivo study in obese C57BL/6J DIO mice was initiated to investigate weight gain, food intake and fasting blood glucose levels (see Table 62 for experimental design). A GMP lot of Compound 1 at different doses was evaluated and compared to DIO mice dosed with vehicle alone. The compound was formulated as a homogenous suspension with Vitamin-E-TPGS, PEG400, Glycerol, Methylcellulose, 10 mM Sodium Citrate buffer pH6 and water. Animals were orally gavaged once-a-day with either test article or vehicle for 4 weeks.

human CB1R = target: T1, human CB1R (Homo sapiens, UniProt P21554); assay: CB1R Human Cannabinoid GPCR Cell Based Antagonist cAMP Assay (HTRF, CHO-K1 cells, CP55940 EC80); settings: antagonist mode, CP55940 EC80, 20 uM forskolin, read-out: IC50 functional activity of CB1R
T1 construct: expressed in transfected cells; host or cells: CHO-K1
Procedure: CB1R Human Cannabinoid GPCR Cell Based Antagonist cAMP Assay
Evaluation of the potency (IC50) of Compound 1 for the human CB1R in stably transfected CHO-K1 cells was determined in a cAMP cell based assay using HTRF detection method. Cells were seeded in a total volume of 20 μL into white walled, 384-well microplates and incubated at 37 °C overnight prior to testing. Prior to testing cell plating media was exchanged with 10 μL of Assay buffer (HBSS+10 mM HEPES). Briefly, intermediate dilution of sample stocks was performed in assay buffer to generate a sample at 4× the final testing concentration. 5 μL of 4× sample was added to cells and incubated at 37 °C for 30 minutes. 5 μL of CP55940 at 4× the final EC80 concentration in 4× forskolin reagent (at 80 uM) was added and cells incubated for 37 °C for 30 minutes. The final concentration of forskolin in the assay was 20 uM. Final assay vehicle concentration was 1%. The results are expressed as a percent inhibition of CP55940 in antagonist mode.

rats = assay: 28-day GLP rat toxicity study; type: in vivo
Source text: The same suspension formulation used in the mouse obesity model was used for the rat GLP toxicity study.

[1] = Solubility in water and biorelevant media; type: physicochemical; settings: room temperature
[2] = Approximate solubility at room temperature in various solvents; type: physicochemical
[3] = Hygroscopicity and sorption by DVS; type: physicochemical
Procedure: The hygroscopicity and the sorption properties of polymorphic Form A of Compound 1 were assessed using DVS.

[4] = Slurry at room temperature (solid form after three days); type: physicochemical
Procedure: Slurry experiments were conducted at room temperature in various solvent systems. […] After the suspension was stirred magnetically for three days at room temperature, the remaining solids were isolated for XRPD analysis (Table 14).

[5] = Solid vapor diffusion (solid form after seven days at RT); type: physicochemical
Procedure: Solid vapor diffusion experiments were conducted using various solvents. […] The 20-mL vial was then sealed with a cap and kept at RT for seven days allowing solvent vapor to interact with sample. The remaining solids were isolated for XRPD analysis (Table 16).

[6] = Excipient compatibility study (4 weeks at 50 °C/75% RH); type: physicochemical
Procedure: The mixtures were placed in open containers and stored at 50 °C and 75% Relative Humidity (RH) for 4 weeks.

[7] = Water activity experiments (IPA/H2O); type: physicochemical
[8] = Slurry at 50 °C (solid form after two days); type: physicochemical
Procedure: Slurry experiments were conducted at 50 °C in various solvent systems. […] After the suspension was stirred magnetically for two days at 50 °C, the remaining solids were isolated for XRPD analysis (Table 15).

CB1R = settings: cited from earlier work

T1 sequence (P21554 whole entry): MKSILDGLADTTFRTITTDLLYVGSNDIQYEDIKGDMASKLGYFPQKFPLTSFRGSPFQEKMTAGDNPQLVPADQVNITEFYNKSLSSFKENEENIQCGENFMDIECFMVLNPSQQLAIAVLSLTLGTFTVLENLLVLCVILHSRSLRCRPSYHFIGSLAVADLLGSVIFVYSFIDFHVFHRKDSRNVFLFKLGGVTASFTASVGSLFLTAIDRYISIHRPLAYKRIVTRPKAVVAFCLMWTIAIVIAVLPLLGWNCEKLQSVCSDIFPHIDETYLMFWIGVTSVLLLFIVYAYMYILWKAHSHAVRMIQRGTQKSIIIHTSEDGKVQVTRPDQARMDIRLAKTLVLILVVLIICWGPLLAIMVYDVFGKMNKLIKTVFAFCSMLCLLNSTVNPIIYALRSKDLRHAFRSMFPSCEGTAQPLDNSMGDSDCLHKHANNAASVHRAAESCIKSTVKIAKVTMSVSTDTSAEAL

## Cc1cc2ncc(-c3ccc(OC(C)(C)C)cc3)n2cc1-c1ccc(OC(C)C)cc1 [Compound 1, 3-(4-(tert-butoxy)phenyl)-6-(4-isopropoxyphenyl)-7-methylimidazo[1,2-a]pyridine]
Obese C57BL/6J DIO mice; 30 mg/kg/day
  food intake vs vehicle: significantly lower
Obese C57BL/6J DIO mice; 10 and 30 mg/kg/day
  body weight vs vehicle: significant decreases in body weight
Obese C57BL/6J DIO mice; oral once-a-day, FIG. 16
  fasting blood glucose vs vehicle: no significant effect on fasting blood glucose
Obese C57BL/6J DIO mice; oral once-a-day, group 4 and 5, FIG. 15
  percent weight gain vs vehicle: significant dose-dependent drop in percent weight gain
Obese C57BL/6J DIO mice; oral once-a-day, group 5, FIG. 15
  food intake vs vehicle: significant reduced food intake
Human CB1R
  IC50: 3.8 µM
rats; 28-day GLP rat toxicity study, FIG. 17
  mean cholesterol vs vehicle: significant dose-dependent decreases in mean cholesterol
rats; all doses tested including 10, 30 and 50 mg/kg/day, 28-day
  cholesterol levels: significantly reduced
rats; rat 28-day GLP toxicity study
  CNS effect (functional observational battery): no evidence of CNS effect

## Cc1cc2ncc(-c3ccc(OC(C)(C)C)cc3)n2cc1-c1ccc(OC(C)C)cc1 [Polymorphic Form A of Compound 1, 3-(4-(tert-butoxy)phenyl)-6-(4-isopropoxyphenyl)-7-methylimidazo[1,2-a]pyridine]
[1]; FaSSIF, pH 6.73
  solubility at 24 h: 0.041 mg/mL (≈ 0.0989 mM)
[1]; FeSSIF, pH 5.07
  solubility at 24 h: 0.224 mg/mL (≈ 0.54 mM)
[1]; Simulated Gastric Fluid (SGF), pH 2.38
  solubility at 24 h: 0.532 mg/mL (≈ 1.28 mM)
[1]; Water, pH 6.63
  solubility at 24 h: < 0.0125 mg/mL
[2]; organic solvent or mixture, 1-4-dioxane
  solubility: > 60 mg/mL
[2]; organic solvent or mixture, 1-Butanol
  solubility: > 60 mg/mL
[2]; organic solvent or mixture, 2-MeTHF
  solubility: > 56 mg/mL
[2]; organic solvent or mixture, 2 butanol
  solubility: > 54 mg/mL
[2]; organic solvent or mixture, Acetone
  solubility: > 56 mg/mL
[2]; organic solvent or mixture, Acetonitrile
  solubility: 28 to 56 mg/mL (≈ 67.5 to 135 mM)
[2]; organic solvent or mixture, CPME
  solubility: > 46 mg/mL
[2]; organic solvent or mixture, DCM
  solubility: > 48 mg/mL
[2]; organic solvent or mixture, DMF
  solubility: > 60 mg/mL
[2]; organic solvent or mixture, DMSO
  solubility: 8 to 24 mg/mL (≈ 19.3 to 57.9 mM)
[2]; organic solvent or mixture, EtOH
  solubility: > 48 mg/mL
[2]; organic solvent or mixture, IPAC
  solubility: > 48 mg/mL
[2]; organic solvent or mixture, Isopropanol
  solubility: > 52 mg/mL
[2]; organic solvent or mixture, MEK
  solubility: > 52 mg/mL
[2]; organic solvent or mixture, MIBK
  solubility: > 50 mg/mL
[2]; organic solvent or mixture, MTBE
  solubility: 28 to 56 mg/mL (≈ 67.5 to 135 mM)
[2]; organic solvent or mixture, MeOH
  solubility: > 48 mg/mL
[2]; organic solvent or mixture, THF
  solubility: > 50 mg/mL
[2]; organic solvent or mixture, Toluene
  solubility: > 46 mg/mL
[2]; organic solvent or mixture, n-Heptane
  solubility: 2.8 to 9.3 mg/mL (≈ 6.75 to 22.4 mM)
[2]; organic solvent or mixture, n-Propanol
  solubility: > 52 mg/mL
[2]; water, H2O
  solubility: < 2.4 mg/mL
[3]; 80% RH
  weight increase (DVS): ~ 0.28%
[3]; 95% RH
  weight increase (DVS): less than 0.5%
[3]; DVS
  hygroscopicity: slightly hygroscopic
[4]; RT, 1,4 Dioxane:H2O (3:7)
  Solid Form: Form A
[4]; RT, ACN
  Solid Form: Form A
[4]; RT, ACN:H2O (4:6)
  Solid Form: Form A
[4]; RT, DCM:n-Heptane (2:8)
  Solid Form: Form A
[4]; RT, DMF:H2O (3:7)
  Solid Form: Form B
[4]; RT, DMSO
  Solid Form: Form A
[4]; RT, DMSO:H2O (4:6)
  Solid Form: Form B
[4]; RT, EtOH:n-Heptane (2:8)
  Solid Form: Form C
[4]; RT, H2O
  Solid Form: Form A
[4]; RT, MEK:n-Heptane (2:8)
  Solid Form: Form A
[4]; RT, MTBE
  Solid Form: Form A
[4]; RT, MTBE:n-Heptane (3:7)
  Solid Form: Form D
[4]; RT, THF:n-Heptane (2:8)
  Solid Form: Form A
[4]; RT, n-Heptane
  Solid Form: Form A
[5]; 2-MeTHF vapor
  Solid Form: Gel
[5]; Acetone vapor
  Solid Form: Form A
[5]; CPME vapor
  Solid Form: Form D
[5]; EtOH vapor
  Solid Form: Form F
[5]; IPA vapor
  Solid Form: Form A
[5]; MEK vapor
  Solid Form: Gel
[5]; MTBE vapor
  Solid Form: Form A
[5]; Toluene vapor
  Solid Form: Form A
[5]; n-Propanol vapor
  Solid Form: Form A, Low Crystalline
[6]
  excipient compatibility: compatible with all excipients and blends in Table 22
[6]; open containers
  Appearance: White granular powder.
[6]; open containers, read-out: Total Related Substances
  degraded at 672 h: 0.3%
[7]; H2O aw = 1
  Solid Form: Form A
[7]; IPA/H2O aw = 0.2, 982/18
  Solid Form: Form A
[7]; IPA/H2O aw = 0.4, 956/44
  Solid Form: Form A + B
[7]; IPA/H2O aw = 0.6, 919/81
  Solid Form: Form C
[7]; IPA/H2O aw = 0.8, 847/153
  Solid Form: Form C
[8]; ACN
  Solid Form: Form A
[8]; ACN:H2O (1:1)
  Solid Form: Form E
[8]; DMSO
  Solid Form: Amorphous
[8]; DSMO:H2O (1:1)
  Solid Form: Amorphous
[8]; EtOH:H2O (1:1)
  Solid Form: Form E
[8]; H2O
  Solid Form: Form A
[8]; H2O:Acetone (7:3)
  Solid Form: Form B
[8]; H2O:EtOH (6:4)
  Solid Form: Form B, Low Crystalline
[8]; H2O:MeOH (7:3)
  Solid Form: Form A
[8]; H2O:THF (7:3)
  Solid Form: Form A
[8]; H2O:n-Propanol (6:4)
  Solid Form: Form B, Peak Missing at 2-
[8]; MTBE
  Solid Form: Form A
[8]; n-Heptane
  Solid Form: Form A
[8]; n-Heptane:1,4-dioxane (19:1)
  Solid Form: Gel
[8]; n-Heptane:Acetone (19:1)
  Solid Form: Form A
[8]; n-Heptane:IPA (19:1)
  Solid Form: Form B
[8]; n-Heptane:Toluene (19:1)
  Solid Form: Form A

## Cc1c(C(=O)NN2CCCCC2)nn(-c2ccc(Cl)cc2Cl)c1-c1ccc(Cl)cc1 [Rimonabant]
CB1R; clinical trials, obese people
  cardiometabolic parameters (waist circumference, hemoglobin A1c, HDL, plasma cholesterol, triglycerides): improved multiple cardiometabolic parameters
  weight loss: weight loss in obese people
CB1R; clinical use
  neuropsychiatric side-effects: withdrawn from clinical use due to its neuropsychiatric side-effects
